Patent publication US9139523B2, “5-HT2B receptor antagonists” (Janssen Pharmaceutica, NV, priority 2010, dated 2015)
Where two headings read alike, the source gives them in different places.

Experiments:
Format in all cases: in vivo
[1] = system: monocrotaline-induced pulmonary arterial hypertension; assay: Monocrotaline-induced pulmonary arterial hypertension in the rat; conditions: for MAP / PAAT / RV/(LV + S) / RVP: Day 21, mean ± SD
Experimental: (§1) Compound (−)-17 was tested in monocrotaline-induced pulmonary arterial hypertension in the rat (see e.g., Stenmark et al, 2009, Am J Physiol Lung Cell Mol Physiol 297, L1013-L1032). Measurements included: mean arterial blood pressure and right ventricular pressure in vivo, ratio of right ventricular weight to left ventricular weight plus septum as an index of right ventricular hypertrophy, pulmonary artery acceleration time, and histological assessement of muscularization of pulmonary arteries.
(§2) Monocrotaline was dissolved in 1 N HCl and then into distilled water, and pH was adjusted to 7.4 using NaOH. A single dose of 60 mg/kg monocrotaline was administered subcutaneously on day 0 to three groups of male Sprague Dawley rats. The test article Compound (−)-17 was dissolved in 20% hydroxypropyl-beta-cyclodextrin with NaOH, HCl and mannitol in pyrogen-free water and administered orally by gavage (10 ml/kg) once daily from day 1 for 21 days at 10 mg/kg and 50 mg/kg. […] Corresponding volumes of 20% hydroxypropyl-beta-cyclodextrin vehicle were administered orally according to the same protocol in a third group of animals.

[2] = as above; conditions: male, Sprague Dawley, in vivo, po, rat, 2 hours post-dosing at day 21, read-out: mean plasma concentration
Experimental: as §1, §2

[3] = Pharmacokinetic evaluation in the mouse; conditions: male CD1 mouse
Experimental: For intravenous (i.v.) administration, Compound (−)-17 was dissolved in saline containing 20% (w/v) hydroxy-propyl-beta-cyclodextrin (HPbCD) at a concentration of 0.25 mg/mL and administered (10 mL/kg) to male CD1 mice (n=3) as a bolus via a tail vein at a dose level of 2.5 mg/kg. For oral (p.o.) administration, Compound (−)-17 was dissolved in water containing 20% (w/v) HPbCD at a concentration of 0.5 mg/mL and administered (20 mL/kg) to male CD1 mice (n=3) via gavage at a dose level of 10 mg/kg. Blood samples were collected via a saphenous vein at serial time points up to 24 h after dosing. Plasma was obtained by centrifugation and stored at −20° C. prior to analysis. Analysis was performed using liquid chromatography (LC) with tandem mass spectrometric detection (MS/MS) in positive ion mode. Compound (−)-17 was eluted from a reversed phase column with a gradient of acetonitrile and water containing 0.1% (v/v) formic acid. At the time of analysis plasma samples (20 uL) were thawed and […] with 200 uL of acetonitrile and centrifuged. Aliquots of the supernatant were injected onto a reversed phase UPLC column and analysed via electrospray Mass Spectrometry. Calibration standards and quality controls, analysed before and after the study samples, were prepared in mouse plasma at the same time as […]. The accuracy (intra branch accuracy from independent QC samples) was between 85% and 115% of the nominal value over the entire concentration range. Non-compartmental pharmacokinetic analysis of the plasma concentration-time curves was performed using WinNonLin to provide estimates of the plasma clearance (CLp), volume of distribution at steady-state (Vss), terminal phase elimination half-life ([…]) and oral bioavailability (F), the results are summarised in Table 8.

[4] = Pharmacokinetic evaluation in the rat; conditions: male Sprague Dawley rat
Experimental: For intravenous (i.v.) administration, Compound (−)-17 was dissolved in saline containing 20% (w/v) hydroxy-propyl-beta-cyclodextrin (HPbCD) at a concentration of 1 mg/mL and administered (2.5 mL/kg) to male Sprague Dawley rats (n=1) as a bolus via a saphenous vein at a dose level of 2.5 mg/kg. For oral (p.o.) administration, Compound (−)-17 was dissolved in water containing 20% (w/v) HPbCD at a concentration of 1 mg/mL and administered (10 mL/kg) to male Sprague Dawley rats (n=3) via gavage at a dose level of 10 mg/kg. Blood samples were collected via a tail vein at serial time points up to 24 h after dosing. Plasma was obtained by centrifugation and stored at −20° C. prior to analysis. Analysis was performed using liquid chromatography (LC) with tandem mass spectrometric detection (MS/MS) in positive ion mode. Compound (−)-17 was eluted from a reversed phase column with a gradient of acetonitrile and water containing 0.1% (v/v) formic acid. At the time of analysis plasma samples (50 uL) were thawed and […] with at least three volumes of acetonitrile and centrifuged. Aliquots of the supernatant were injected onto a reversed phase UPLC column and analysed via electrospray Mass Spectrometry. Calibration standards and quality controls, analysed before and after the samples, were prepared in rat plasma at the same time as the study samples. The accuracy (intra branch accuracy from independent QC samples) was between 85% and 115% of the nominal value over the entire concentration range. Non-compartmental pharmacokinetic analysis of the plasma concentration-time curves was performed using WinNonLin to provide estimates of the plasma clearance (CLp), volume of distribution at steady-state (Vss), terminal phase elimination half-life (t½) and oral bioavailability (F), the results are summarised in Table 8.

[5] = 10 mg/kg p.o. once daily 21 days
[6] = 50 mg/kg p.o. once daily 21 days
[7] = rat, 10 mg and 50 mg p.o. once daily, three weeks
[8] = p.o. 10 mg/kg vs i.v. 2.5 mg/kg
[9] = plasma, intravenous, 2.5 mg/kg, read-out: t½ (converted)

COc1cc(N)c(Cl)cc1C(=O)NC1CCN(CCCOc2ccc(F)cc2)CC1(F)F (single isomer, unassigned) [Compound (−)-17, 4-amino-5-chloro-N-{3,3-difluoro-1-[3-(4-fluorophenoxy)-propyl]-piperidin-4-yl}-2-methoxybenzamide]
MAP [1, 5]: 93.7 ± 14.11 mmHg | PAAT [1, 5]: 15.91 ± 2.76 ms | RV/(LV + S) [1, 5]: 0.46 ± 0.08 | RVP [1, 5]: 43.18 ± 7.38 mmHg | MAP [1, 6]: 97.58 ± 9.74 mmHg | PAAT [1, 6]: 15.42 ± 2.62 ms | RV/(LV + S) [1, 6]: 0.41 ± 0.08 | RVP [1, 6]: 42.85 ± 11.55 mmHg | toxicity of three-week treatment ([1]; rat, 10 mg and 50 mg p.o. once daily): non-toxic | effect on mean arterial blood pressure (MAP) [1, 7]: no effect | effect on pulmonary artery acceleration time (PAAT) [1, 7]: increased | effect on right ventricular hypertrophy RV/(LV+S) [1, 7]: reduced | effect on right ventricular pressure (RVP) [1, 7]: reduced | monocrotaline-induced thickening of wall of small pulmonary arteries ([1]; rat, 10 mg p.o. three weeks (P<0.005)): reduced | monocrotaline-induced thickening of wall of small pulmonary arteries ([1]; rat, 50 mg/kg p.o. three weeks (P=0.0539)): reduced | concentration at 2 h ([2]; 10 mg/kg, 10 mg p.o. once daily): ~80 ng/mL | concentration at 2 h ([2]; 50 mg/kg, 50 mg p.o. once daily): 1000 ng/mL | F [3, 8]: 52% | half-life [3, 9]: 84 ± 12 min | clearance ([3]; plasma, iv, i.v. 2.5 mg/kg): 20 ± 6 mL/min/kg | Vd ([3]; plasma, iv, i.v. 2.5 mg/kg, read-out: Vss): 1.9 ± 0.6 L/kg | AUC(0-t) ([3]; plasma, po, p.o. 10 mg/kg): 4440 ± 1090 ng·h/mL | Cmax ([3]; plasma, po, p.o. 10 mg/kg): 1580 ± 165 ng/mL | Tmax ([3]; plasma, po, p.o. 10 mg/kg): 30 min | F [4, 8]: 19% | half-life [4, 9]: 66 min | clearance ([4]; plasma, iv, i.v. 2.5 mg/kg (n=1)): 46 mL/min/kg | Vd ([4]; plasma, iv, i.v. 2.5 mg/kg (n=1), read-out: Vss): 3.1 L/kg | AUC(0-t) ([4]; plasma, po, p.o. 10 mg/kg): 686 ± 254 ng·h/mL | Cmax ([4]; plasma, po, p.o. 10 mg/kg): 119 ± 37 ng/mL | Tmax ([4]; plasma, po, p.o. 10 mg/kg): 30 min
